Results reported in patent publication US5814655A, “Non-steroidal ophthalmic mixtures” (InSite Vision Incorporated, priority 1996, dated 1998).

Assay: Percent of drug in suspension as a function of concentration in the formulation and pH
Assay type: physicochemical
[1] = pH 4.0, concentration in the formulation 1.0
[2] = pH 4.0, concentration in the formulation .001
[3] = pH 4.0, concentration in the formulation .01
[4] = pH 4.0, concentration in the formulation .1
[5] = pH 4.0, concentration in the formulation 5.0
[6] = pH 5.0, concentration in the formulation 1.0
[7] = pH 5.0, concentration in the formulation 5.0
[8] = pH 5.0, concentration in the formulation .001
[9] = pH 5.0, concentration in the formulation .01
[10] = pH 5.0, concentration in the formulation .1
[11] = pH 6.0, concentration in the formulation 1.0
[12] = pH 6.0, concentration in the formulation 5.0
[13] = pH 6.0, concentration in the formulation .001
[14] = pH 6.0, concentration in the formulation .01
[15] = pH 6.0, concentration in the formulation .1
[16] = pH 7.0, concentration in the formulation 1.0
[17] = pH 7.0, concentration in the formulation 5.0
[18] = pH 7.0, concentration in the formulation .001
[19] = pH 7.0, concentration in the formulation .01
[20] = pH 7.0, concentration in the formulation .1

O=C(O)Cc1ccccc1Nc1c(Cl)cccc1Cl [Diclofenac Sodium, sodium ortho-(2,6-dichlorophenyl)aminophenylacetate acid]
diclofenac in suspension (in words) (below a pH of about 6.8, formulation containing 1% diclofenac sodium): virtually all | Percent Diclofenac Sodium in Suspension (pH 3.7, concentration in the formulation 1.0): 100% | Percent Diclofenac Sodium in Suspension (pH 3.7, concentration in the formulation .001): 100% | Percent Diclofenac Sodium in Suspension (pH 3.7, concentration in the formulation .01): 100% | Percent Diclofenac Sodium in Suspension (pH 3.7, concentration in the formulation .1): 100% | Percent Diclofenac Sodium in Suspension [1]: 99% | Percent Diclofenac Sodium in Suspension [2]: 99% | Percent Diclofenac Sodium in Suspension [3]: 99% | Percent Diclofenac Sodium in Suspension [4]: 99% | Percent Diclofenac Sodium in Suspension (pH 4.6, concentration in the formulation 1.0): 99% | Percent Diclofenac Sodium in Suspension (pH 4.6, concentration in the formulation .001): 90% | Percent Diclofenac Sodium in Suspension (pH 4.6, concentration in the formulation .01): 99% | Percent Diclofenac Sodium in Suspension (pH 4.6, concentration in the formulation .1): 99% | Percent Diclofenac Sodium in Suspension (pH 5.2, concentration in the formulation 1.0): 99% | Percent Diclofenac Sodium in Suspension (pH 5.2, concentration in the formulation .001): 20% | Percent Diclofenac Sodium in Suspension (pH 5.2, concentration in the formulation .01): 92% | Percent Diclofenac Sodium in Suspension (pH 5.2, concentration in the formulation .1): 99% | Percent Diclofenac Sodium in Suspension (pH 5.9, concentration in the formulation 1.0): 99% | Percent Diclofenac Sodium in Suspension (pH 5.9, concentration in the formulation .001): 0% | Percent Diclofenac Sodium in Suspension (pH 5.9, concentration in the formulation .01): 50% | Percent Diclofenac Sodium in Suspension (pH 5.9, concentration in the formulation .1): 95% | Percent Diclofenac Sodium in Suspension (pH 6.3, concentration in the formulation 1.0): 98% | Percent Diclofenac Sodium in Suspension (pH 6.3, concentration in the formulation .001): 0% | Percent Diclofenac Sodium in Suspension (pH 6.3, concentration in the formulation .01): 0% | Percent Diclofenac Sodium in Suspension (pH 6.3, concentration in the formulation .1): 76% | Percent Diclofenac Sodium in Suspension (pH 6.5, concentration in the formulation 1.0): 93% | Percent Diclofenac Sodium in Suspension (pH 6.5, concentration in the formulation .001): 0% | Percent Diclofenac Sodium in Suspension (pH 6.5, concentration in the formulation .01): 0% | Percent Diclofenac Sodium in Suspension (pH 6.5, concentration in the formulation .1): 35% | Percent Diclofenac Sodium in Suspension (pH 7.3, concentration in the formulation 1.0): 64% | Percent Diclofenac Sodium in Suspension (pH 7.3, concentration in the formulation .001): 0% | Percent Diclofenac Sodium in Suspension (pH 7.3, concentration in the formulation .01): 0% | Percent Diclofenac Sodium in Suspension (pH 7.3, concentration in the formulation .1): 0%

CC(C(=O)O)c1ccc(-c2ccccc2)c(F)c1 (stereo not shown) [Flurbiprofen]
Percent Flurbiprofen in Suspension [1]: 99% | Percent Flurbiprofen in Suspension [5]: 99% | Percent Flurbiprofen in Suspension [2]: 20% | Percent Flurbiprofen in Suspension [3]: 92% | Percent Flurbiprofen in Suspension [4]: 99% | Percent Flurbiprofen in Suspension [6]: 99% | Percent Flurbiprofen in Suspension [7]: 99% | Percent Flurbiprofen in Suspension [8]: 0% | Percent Flurbiprofen in Suspension [9]: 33% | Percent Flurbiprofen in Suspension [10]: 93% | Percent Flurbiprofen in Suspension [11]: 80% | Percent Flurbiprofen in Suspension [12]: 98% | Percent Flurbiprofen in Suspension [13]: 0% | Percent Flurbiprofen in Suspension [14]: 0% | Percent Flurbiprofen in Suspension [15]: 0% | Percent Flurbiprofen in Suspension [16]: 24% | Percent Flurbiprofen in Suspension [17]: 92% | Percent Flurbiprofen in Suspension [18]: 0% | Percent Flurbiprofen in Suspension [19]: 0% | Percent Flurbiprofen in Suspension [20]: 0%

CC(C(=O)O)c1ccc(C(=O)c2cccs2)cc1 (stereo not shown) [Suprofen]
Percent Suprofen in Suspension [1]: 98% | Percent Suprofen in Suspension [5]: 99% | Percent Suprofen in Suspension [2]: 0% | Percent Suprofen in Suspension [3]: 0% | Percent Suprofen in Suspension [4]: 77% | Percent Suprofen in Suspension [6]: 95% | Percent Suprofen in Suspension [7]: 99% | Percent Suprofen in Suspension [8]: 0% | Percent Suprofen in Suspension [9]: 0% | Percent Suprofen in Suspension [10]: 45% | Percent Suprofen in Suspension [11]: 54% | Percent Suprofen in Suspension [12]: 95% | Percent Suprofen in Suspension [13]: 0% | Percent Suprofen in Suspension [14]: 0% | Percent Suprofen in Suspension [15]: 0% | Percent Suprofen in Suspension [16]: 0% | Percent Suprofen in Suspension [17]: 68% | Percent Suprofen in Suspension [18]: 0% | Percent Suprofen in Suspension [19]: 0% | Percent Suprofen in Suspension [20]: 0%
